Target: human 5-HT2A receptor (Homo sapiens (Human), UniProt P28223)
Assay: [125I]DOI radioligand binding assay
Conditions: 0.5 nM [125I]DOI, COS7 membranes with recombinant human 5-HT2A receptor
Description: For the IP accumulation assay (Example 3), HEK293 cells were transfected while for the DOI binding assay (Example 4) COS7 cells were transfected. Several protocols well known in the art can be used to transfect cells. The following protocol is representative of the transfection procedures used herein for COS7 or 293 cells.
On day one, COS-7 cells were plated onto 24 well plates, usually 1×10^5 cells/well or 2×10^5 cells/well, respectively. On day two, the cells were transfected by first mixing 0.25 μg cDNA in 50 μL serum-free DMEM/well and then 2 μL lipofectamine in 50 μL serum-free DMEM/well. The solutions (“transfection media”) were gently mixed and incubated for 15-30 minutes at room temperature. The cells were washed with 0.5 mL PBS and then 400 μL of serum free media was mixed with the transfection media and added to the cells. The cells were then incubated for 3-4 hours at 37° C./5% CO2. Then the transfection media was removed and replaced with 1 mL/well of regular growth media.
Compounds of the invention were tested for their ability to bind to a 5-HT2A receptor clone membrane preparation using a radioligand binding assay. Briefly, COS cells were transiently transfected with a pCMV expression vector containing a human 5-HT2A receptor (for the sequence of the receptor see U.S. Pat. No. 6,541,209, SEQ ID NO:24) as described in Example 2.
COS7 cells transfected with recombinant human 5-HT2A receptors were cultured for 48 hr post transfection, collected, washed with ice-cold phosphate buffered saline, pH7.4 (PBS), and then centrifuged at 48,000×g for […] at 4° C. The cell pellet was then resuspended in wash buffer containing 20 mM HEPES pH 7.4 and 0.1 mM EDTA, homogenized on ice using a Brinkman polytron, and recentrifuged at 48,000×g for 20 min. at 4° C. The resultant pellet was then resuspended in 20 mM HEPES, pH 7.4, homogenized on ice, and centrifuged (48,000×g for 20 min at 4° C.). Crude membrane pellets were stored at −80° C. until used for radioligand binding assays.
Radioligand binding assays for human 5-HT2A receptor was conducted using the 5-HT2 agonist [^125I]DOI as radioligand. To define nonspecific binding, 10 μM DOI was used for all assays. For competitive binding studies, 0.5 nM [^125I]DOI was used and compounds were assayed over a range of 0.01 nM to 10 μM. Assays were conducted in a total volume of 200 μl in 96-well Perkin Elmer GF/C filter plates in assay buffer (50 mM Tris-HCl, pH 7.4, 0.5 mM EDTA, 5 mM MgCl2, and 10 μM pargyline). […] Plates were then dried at room temperature and counted in a Wallac microBeta scintillation counter.
Work on `COCCOc1ccc(NC(=O)c2cccc(C(F)(F)F)c2)cc1-c1ccnn1C` [Compound 52, N-[4-(2-Methoxy-ethoxy)-3-(2-methyl-2H-pyrazol-3-yl)-phenyl]-3-trifluoromethyl-benzamide] yielded an IC50 of 4.4 nM. Work on `COc1cccc(C(=O)Nc2ccc(OCCO)c(-c3c(Cl)cnn3C)c2)c1` [Compound 68, N-[3-(4-Chloro-2-methyl-2H-pyrazol-3-yl)-4-(2-hydroxy-ethoxy)-phenyl]-3-methoxy-benzamide] yielded an IC50 of 0.51 nM. Work on `COCCNCCOc1ccc(NC(=O)c2cccc(C(F)(F)F)c2)cc1-c1c(Cl)cnn1C` [Compound 15, N-{3-(4-Chloro-2-methyl-2H-pyrazol-3-yl)-4-[2-(2-methoxy-ethylamino)-ethoxy]-phenyl}-3-trifluoromethyl-benzamide] yielded an IC50 of 0.082 nM. Compound `COCCNC(=O)COc1ccc(NC(=O)c2cccc(C(F)(F)F)c2)cc1-c1c(Cl)cnn1C` [Compound 50, N-{3-(4-Chloro-2-methyl-2H-pyrazol-3-yl)-4-[(2-methoxy-ethylcarbamoyl)-methoxy]-phenyl}-3-trifluoromethyl-benzamide] has an IC50 of 52 nM.

System: diabetic rats
Assay: not given
Conditions: range stated for all three drugs; cited from earlier work
In the case of `COc1cccc(CCc2ccccc2OCC(CN(C)C)OC(=O)CCC(=O)O)c1` (stereo not shown) [sarpogrelate], the “correction of a 19.8% sciatic motor conduction deficit” value is given as 82.6-99.7%. In the case of `Cc1nc2sccn2c(=O)c1CCN1CCC(=C(c2ccc(F)cc2)c2ccc(F)cc2)CC1` [ritanserin], the “correction of a 19.8% sciatic motor conduction deficit” value is listed as 82.6-99.7%. In the case of `O=CN1CCC(C(=O)NCCN2CCC(=C3c4ccccc4C=Cc4ccccc43)CC2)CC1` [AT-1015], the “correction of a 19.8% sciatic motor conduction deficit” value is given as 82.6-99.7%.

— patent US8680119B2, “Ethers, secondary amines and derivatives thereof as modulators of the 5-HT2A serotonin receptor useful for the treatment of disorders related thereto” (Arena Pharmaceuticals, Inc., priority 2006, dated 2014)
